Laboratory results from patent US20250360187A1, “HEPCIDIN MIMETICS FOR TREATMENT OF SICKLE CELL DISEASE” (Protagonist Therapeutics, Inc., priority 2022, published 2025).
“Also recorded” adds a separate entry of the source. Where a SMILES comes first, the peptide text is derived from it.

Tested on: Townes SCD mice
Experiment: Efficacy study of hepcidin mimetics in a mouse model of sickle cell disease (CBC, serum hemolysis biomarkers, spleen and liver weights)
Format: in vivo
Conditions: for % Retics / Abs Retics / HCT / HGB / MCH / MCHC / MCV / RBC / LDH / Total bilirubin: 4 weeks, mean ± SD; for LDH / Total bilirubin: serum
Protocol: Compound 46, a hepcidin mimetic, was administered subcutaneously at 1.0 mg/kg (group 3, N=9) or 2.5 mg/kg (group 4, N=9) in Townes SCD mice. 36 Townes SCD and 6 129S1/SvlmJ (wild-type), female mice, 5 weeks old upon delivery. A control group of wild-type mice (groups 1, N=6) was treated with vehicle as well as another SCD mice (group 2, N=9). All mice were dosed three times per week (TIW). All mice were maintained on an iron-adjusted diet (TD.140258, 35 ppm iron) throughout the study. Collections and necropsies were performed 24 hours post-last dose of compound or vehicle. After 4 weeks on study, animals from each group were euthanized, EDTA whole blood collected for CBC and serum was collected for hemolysis biomarker analysis. Spleens and livers were weighed at terminus. Liver, spleen, kidney, heart and brain were collected for future analysis. Serum and urine were collected to analyze chemistry markers, such as bilirubin, LDH (lactate dehydrogenase), haptoglobin, urine creatinine, urine total protein and urine urea nitrogen.
As shown in FIG. 4A and FIG. 4B, reticulocytes were counted both with the automated analyzer as well as manually from a new methylene blue stained blood smear by counting the number of positive stained cells encountered in 500 erythrocytes and calculating the percentage.

[1] = SCD mice, compared to vehicle, across doses
[2] = Townes SCD mice, Dose 1 (1.0 mg/kg s.c. TIW)
[3] = Townes SCD mice, Dose 2.5 (2.5 mg/kg s.c. TIW)

CCCCCCCCCCCCCCCC(=O)N[C@@H](CCC(=O)NCCCC[C@@H]1NC(=O)[C@H]([C@@H](C)CC)NC(=O)[C@@H](NC(=O)[C@@H]2CCCN2C(=O)[C@H](Cc2ccccc2)NC(=O)[C@H](Cc2cnc[nH]2)NC(=O)[C@@H](NC(=O)[C@H](CCC(=O)O)NC(=O)CC(C)C)[C@@H](C)O)CSSC[C@@H](C(=O)N[C@@H](CCCCN)C(N)=O)NC(=O)CNC(=O)[C@H](CCCCN)NC(=O)[C@H](CO)NC(=O)[C@H](CCCNC(=N)N)NC(=O)[C@@H]2CCCN2C(=O)[C@H](CCC(=O)O)NC(=O)[C@H](Cc2ccccc2)NC1=O)C(=O)O [Compound 46, Isovaleric_Acid-ETHFPCI(K(IsoGlu_Palm))FEPRSKGCK-NH2] (HELM PEPTIDE1{[CC(C)CC(=O)[*:2]].E.T.H.F.P.C.I.K.F.E.P.R.S.K.G.C.K.[am]}|PEPTIDE2{[CCCCCCCCCCCCCCCC(=O)[*:2]].[gGlu]}$PEPTIDE1,PEPTIDE2,9:R3-2:R2|PEPTIDE1,PEPTIDE1,7:R3-17:R3$$$V2.0)
RBC count (in words) (SCD mice, 2.5 mg/kg dose): significantly reduced
Percent of reticulocytes (in words) (SCD mice, 2.5 mg/kg dose, compared to vehicle control): decreased percent of reticulocytes significantly
Mean corpuscular hemoglobin concentration (MCHC) (in words) (SCD mice, 2.5 mg/kg, compared to vehicle control): significant increase in MCHC
Hematocrit (HCT) (in words) (SCD mice, across doses): significant reduction of HCT in a dose dependent manner
Lymphocyte count (in words) (SCD mice, across doses): significant WBC and lymphocyte reduction in a dose dependent manner; also recorded: alleviated elevated white blood cell (WBC) and lymphocytes counts
Neutrophil count (in words) (SCD mice, across doses): significantly decreased neutrophil count in a dose dependent manner; also recorded: alleviated elevated neutrophil and monocyte counts
Serum lactate dehydrogenase (LDH) (in words) (SCD mice, across doses): significantly reduced both parameters in a dose dependent manner
Serum total bilirubin (in words) (SCD mice, across doses): significantly reduced both parameters in a dose dependent manner
White blood cell (WBC) count (in words) (SCD mice, across doses): significant WBC and lymphocyte reduction in a dose dependent manner; also recorded: alleviated elevated white blood cell (WBC) and lymphocytes counts
Mean corpuscular volume (MCV) (in words) (SCD mice, across doses, compared to the vehicle group): significant reduction of MCV in a dose dependent manner
Hgb level (in words) (SCD mice, all three dose groups): significantly reduced in all three dose groups
Mean corpuscular hemoglobin (MCH) (in words) (SCD mice, compared to vehicle control): significant reduction in MCH
Liver to body weight ratios (in words) [1]: significantly lower in a dose dependent manner
Liver weight / liver size (in words) [1]: significantly lower in a dose dependent manner; also recorded: reduces liver size
Spleen to body weight ratios (in words) [1]: significantly and dose-dependently lower
Spleen weights / spleen size (in words) [1]: significantly and dose-dependently lower; also recorded: reduces spleen size
Monocyte count (in words) (Townes SCD mice): alleviated elevated neutrophil and monocyte counts
% Retics [2]: 65.78%
Abs Retics [2]: 2612 K/uL
HCT [2]: 29.62%
HGB [2]: 5.89 g/dL
MCH [2]: 9.89 pg
MCHC [2]: 19.82 g/dL
MCV [2]: 50.11 fL
RBC [2]: 5.94 M/uL
% Retics [3]: 50.33%
Abs Retics [3]: 1195 K/uL
HCT [3]: 16.27%
HGB [3]: 4.39 g/dL
MCH [3]: 9.82 pg
MCHC [3]: 23.22 g/dL
MCV [3]: 42.56 fL
RBC [3]: 4.49 M/uL
LDH [2]: 610.6 U/L
Total bilirubin [2]: 2.16 mg/dL
LDH [3]: 372.3 U/L
Total bilirubin [3]: 1.13 mg/dL
